Reference: paper PMC10283505, “CVM-1118 (foslinanib), a 2-phenyl-4-quinolone derivative, promotes apoptosis and inhibits vasculogenic mimicry via targeting TRAP1” (Pathology and Oncology Research, 2023)
pIC50: −log10 of the molar value.

What was measured:
[1] = system: nine selected human cancer cell lines; assay: Cytotoxicity assay, panel of nine selected human cancer cell lines; type: cell-based; details: all nine cell lines of Table 1
Experimental: (§1) This assay was conducted in ProQinase GmbH (Freiburg, Germany). Nine cancer cell lines (A549, DU-145, HT-29, MDA-MB-231, MDA-MB-435, Mia PaCa-2, NCI-ADR-RES, SK-N-MC, and U118MG) were seeded at 5,000 cells/well in 96-well cell culture plates in 150 µL of complete medium for 24 h prior to treatment. The test compounds CVM-1118 and CVM-1125 were synthesized by China Medical University, Chengdu Chempartner Co., Ltd., and Formosa Laboratories, Inc. To prepare the assay, the compounds were dissolved in 100% DMSO at a concentration of […]. Cells were then treated with vehicle, CVM-1118 or CVM-1125 at various concentrations for 72 h. Cell viability was determined by the fluorescent quantification of Alamar Blue (Invitrogen, Thermo Fisher Scientific). By the end of incubation, Alamar Blue reagent was added to the well for 4 h and the fluorescence was measured at 590 nm. The amount of fluorescence produced is proportional to the number of metabolically active cells. IC50 determination was performed using a variable slope sigmoidal response fitting model with 0% cell growth as a bottom constraint and 100% cell growth as a top constraint (GraphPad Prism, United States).

HCT-116 = assay: NCI 60 cytotoxicity screening; type: cell-based; details: Homo sapiens
RPMI-8226 = assay: NCI 60 cytotoxicity screening; type: cell-based; details: Homo sapiens; RPMI-8226, Leukemia
MOLT-4 = assay: NCI 60 cytotoxicity screening; type: cell-based; details: Homo sapiens; MOLT-4, Leukemia
[2] = Pharmacokinetic study of oral CVM-1118 in mouse (plasma, LC-MS/MS); type: in vivo, male CD-1 mice; details: for AUC(0-inf) / AUC(0-t) / Cmax / MRT / Tmax / half-life: mouse, analyte in plasma after single oral CVM-1118 30 mg/kg in 9% NaHCO3, fasted male CD-1 mice; for half-life: read-out: T1/2 (terminal half-life) (converted)
Experimental: Supplementary Results on Pharmacokinetic study of oral CVM-1118 in Mouse Method: The pharmacokinetics of CVM-1118 and CVM-1125 were investigated in male CD-1 mice following a single oral administration of CVM-1118 at 30 mg/kg in 9% NaHCO3 in fasted mice. At pre-determined time points, plasma samples were collected and stored at -20°C prior to measurement of CVM-1118 and CVM-1125 concentrations using an LC-MS/MS method. The plasma samples were collected at 0, 0.25, 0.5, 1, 2, 4, 8, 12, 24 and 27 h after dosing with 3 mice per group at each time […]
Result: For single oral administration of 30 mg/kg CVM-1118 in 9% NaHCO3 solution, […]
from CVM-1118 to CVM-1125 occurred very rapidly.
1118 and CVM-1125. The drug exposure (AUC0-inf) of CVM-1118 was low (7 ng·h/mL), indicating rapid conversion to CVM-1125 following oral dosing (AUC0-inf of TRX-818M1 was 287 ng·h/mL). The terminal half-life of CVM-1118 and CVM-1125 were 0.7 h and 8.3 h, respectively. The oral bioavailability of CVM-1118 was low (~3%), […]
1118, was considered favorable.
Mean plasma concentrations-time curves of CVM-1118 and CVM-1125 following a single dose of CVM-1118 in male CD-1 mice
(1 picture or pasted object on this page, not shown here)

SK-N-MC = assay: Cytotoxicity assay (Alamar Blue, 72 h); type: cell-based; details: Homo sapiens, SK-N-MC (Neuroblastoma)
Experimental: (§2) For cytotoxicity and cell cycle analysis, the following cell lines were used, and their culture conditions were as described: for A549, DU-145, HT-29, MDA-MB-231, Mia PaCa-2, and U118MG, cells were cultured in DMEM containing 10% FCS; for MDA- MB-435 and NCI-ADR-RES, cells were cultured in RPMI-1640 containing 10% FCS, and for SK-N-MC, cells were cultured in MEM containing 10% FCS. For the animal pharmacology study, HCT-116, a colon cancer cell line was tested. Cells were cultured in McCoy’s 5a medium supplemented with 10% heat inactivated fetal bovine serum. For the cell lines used in VM analysis and target identification, C8161 and COLO205 cells were maintained in RPMI-1640 containing 10% FBS and 0.1% gentamycin sulfate. The SKOV3 line was cultured in RPMI-1640 supplemented with 15% FBS and 0.1% gentamycin sulfate. For the SK-MEL28 and MCF-7, cells were maintained in MEM/Earles Salts supplemented with 10% FBS and 0.1% gentamycin sulfate.
as §1

NCI-ADR-RES = assay: Cytotoxicity assay (Alamar Blue, 72 h); type: cell-based; details: Homo sapiens, NCI-ADR-RES (Ovarian)
Experimental: as §2, §1

U118MG = assay: Cytotoxicity assay (Alamar Blue, 72 h); type: cell-based; details: Homo sapiens, U-118-MG, U118MG (Glioma)
Experimental: as §2, §1

MDA-MB-231 = assay: Cytotoxicity assay (Alamar Blue, 72 h); type: cell-based; details: Homo sapiens, MDA-MB-231 (Breast)
Experimental: as §2, §1

MDA-MB-435 = assay: Cytotoxicity assay (Alamar Blue, 72 h); type: cell-based; details: Homo sapiens, MDA-MB-435 (Melanoma)
Experimental: as §2, §1

Mia PaCa-2 = assay: Cytotoxicity assay (Alamar Blue, 72 h); type: cell-based; details: Homo sapiens, Mia PaCa-2 (Pancreatic)
Experimental: as §2, §1

HT-29 = assay: Cytotoxicity assay (Alamar Blue, 72 h); type: cell-based; details: Homo sapiens, HT-29 (Colon)
Experimental: as §2, §1

DU-145 [3] = assay: Cytotoxicity assay (Alamar Blue, 72 h); type: cell-based; details: Homo sapiens, DU-145 (Prostate)
Experimental: as §2, §1

A549 = assay: Cytotoxicity assay (Alamar Blue, 72 h); type: cell-based; details: Homo sapiens, A549 (Lung)
Experimental: as §2, §1

EKVX = assay: NCI 60 cytotoxicity screening; type: cell-based; details: Homo sapiens, NSCLC
DU-145 [4] = assay: NCI 60 cytotoxicity screening; type: cell-based; details: Homo sapiens; DU-145, Prostate
UACC-62 = assay: NCI 60 cytotoxicity screening; type: cell-based; details: Homo sapiens; UACC-62, Melanoma

Row | SMILES | pIC50 [1] | AUC(0-inf) [2] [ng·h/mL] | AUC(0-t) [2] [ng·h/mL] | Cmax [2] [ng/mL] | MRT [2] [min] | Tmax [2] [min] | half-life [2] [min] | pIC50 (SK-N-MC) | pIC50 (NCI-ADR-RES) | pIC50 (U118MG) | pIC50 (MDA-MB-231) | pIC50 (MDA-MB-435) | pIC50 (Mia PaCa-2) | pIC50 (HT-29) | pIC50 (DU-145 [3]) | pIC50 (A549) | other results
1 | COc1ccc2[nH]c(-c3cccc(F)c3)cc(=O)c2c1O [CVM-1125] | > 7.30 | 287 | 279 | 349 | 180 | 15 | 498 | 8.10 | 7.85 | 8.10 | 7.85 | 8.30 | 8.15 | 7.77 | 7.57 | 7.54 | GI50 (HCT-116; HCT-116, Colon): 33 nM; pIC50 (HCT-116; HCT-116, refers to Supplementary Table S2): 7.48; GI50 (RPMI-8226): 33.1 nM; GI50 (MOLT-4): 47.6 nM; GI50 (EKVX): 46.1 nM; GI50 (DU-145 [4]): 21.1 nM; GI50 (UACC-62): 31 nM
2 | COc1ccc2[nH]c(-c3cccc(F)c3)cc(=O)c2c1OP(=O)(O)O [CVM-1118] | > 7.30 | 7 | 7 | 21 | 36 | 15 | 42 | 8.05 | 7.85 | 8.00 | 7.74 | 8.40 | 7.96 | 7.82 | 7.68 | 7.59 | bioavailability ([2]; male, CD-1, mouse, plasma, po, 30 mg/kg, single oral CVM-1118 30 mg/kg in 9% NaHCO3, fasted male CD-1 mice, read-out: F (oral bioavailability)): ~3%; F (oral bioavailability) ([2]; single oral CVM-1118 30 mg/kg in 9% NaHCO3, fasted male CD-1 mice, 30 mg/kg): 2.96%
